Read-outs that look alike come from different tables or passages of the source.

Holding throughout (test): TGFα-shedding assay-based GPCR screening with chimeric Gα subunit proteins
What all share (assay type): cell-based

For experiment [1], the target named is T1, 348 GPCRs (Homo sapiens, UniProt Q8TDS7).
T1 construct: expressed in transfected cells; host or cells: HEK293A
The note with it: 10µM, Favipiravir 100μM.

Experiment [2] deals with T2, 348 GPCRs (Homo sapiens, UniProt Q9HBX9).
T2 construct: expressed in transfected cells; host or cells: HEK293A
T2 sequence (Q9HBX9 1-757): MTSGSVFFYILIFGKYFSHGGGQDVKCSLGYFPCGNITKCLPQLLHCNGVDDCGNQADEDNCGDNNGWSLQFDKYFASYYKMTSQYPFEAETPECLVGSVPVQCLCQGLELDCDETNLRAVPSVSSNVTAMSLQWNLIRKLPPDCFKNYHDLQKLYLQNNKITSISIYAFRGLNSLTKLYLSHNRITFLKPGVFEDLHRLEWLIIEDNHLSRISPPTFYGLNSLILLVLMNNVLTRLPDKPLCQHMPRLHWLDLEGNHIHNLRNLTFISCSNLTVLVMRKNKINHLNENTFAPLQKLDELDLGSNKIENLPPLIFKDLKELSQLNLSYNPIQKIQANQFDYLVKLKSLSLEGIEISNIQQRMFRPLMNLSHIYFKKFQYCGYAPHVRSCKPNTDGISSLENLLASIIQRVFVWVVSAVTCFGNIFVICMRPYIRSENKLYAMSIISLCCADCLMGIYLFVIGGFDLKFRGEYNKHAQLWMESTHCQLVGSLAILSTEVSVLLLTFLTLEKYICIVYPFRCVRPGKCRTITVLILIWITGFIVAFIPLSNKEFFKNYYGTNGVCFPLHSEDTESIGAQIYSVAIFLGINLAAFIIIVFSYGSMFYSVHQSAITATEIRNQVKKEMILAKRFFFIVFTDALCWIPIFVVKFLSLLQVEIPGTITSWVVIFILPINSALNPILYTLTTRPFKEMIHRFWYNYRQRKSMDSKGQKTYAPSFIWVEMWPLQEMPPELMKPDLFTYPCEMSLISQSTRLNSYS
The note with it: RXFP1 (relaxin/insulin-like family peptide receptor 1); 10µM, Favipiravir 100μM.

The target of experiment [3] is T3, 348 GPCRs (Homo sapiens, UniProt P47775).
T3 construct: expressed in transfected cells; host or cells: HEK293A
T3 sequence (P47775 1-334): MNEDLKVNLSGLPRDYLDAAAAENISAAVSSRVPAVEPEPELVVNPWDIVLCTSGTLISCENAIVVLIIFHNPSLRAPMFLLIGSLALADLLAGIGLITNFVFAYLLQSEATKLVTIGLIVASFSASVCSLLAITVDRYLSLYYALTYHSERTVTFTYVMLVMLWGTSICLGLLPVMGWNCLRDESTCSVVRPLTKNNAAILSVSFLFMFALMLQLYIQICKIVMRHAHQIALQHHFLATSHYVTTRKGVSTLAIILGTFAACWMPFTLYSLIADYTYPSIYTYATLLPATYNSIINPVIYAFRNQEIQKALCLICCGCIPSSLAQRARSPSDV

The target of experiment [4] is T4, 348 GPCRs (Homo sapiens, UniProt Q13258).
T4 sequence (Q13258 1-359): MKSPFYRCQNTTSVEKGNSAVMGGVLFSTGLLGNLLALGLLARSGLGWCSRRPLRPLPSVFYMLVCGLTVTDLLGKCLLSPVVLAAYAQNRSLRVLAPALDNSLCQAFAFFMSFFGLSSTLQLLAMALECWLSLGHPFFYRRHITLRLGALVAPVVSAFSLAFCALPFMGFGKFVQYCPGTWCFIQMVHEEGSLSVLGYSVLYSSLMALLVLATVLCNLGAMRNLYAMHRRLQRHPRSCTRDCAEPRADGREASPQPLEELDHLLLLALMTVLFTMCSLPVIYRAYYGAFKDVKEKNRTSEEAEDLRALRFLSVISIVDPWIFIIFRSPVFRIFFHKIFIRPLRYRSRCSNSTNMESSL
The note with it: 10µM, Favipiravir 100μM.

Experiment [5] has as its target T5, 348 GPCRs (Homo sapiens, UniProt P59542).
T5 construct: expressed in transfected cells; host or cells: HEK293A
T5 sequence (P59542 1-299): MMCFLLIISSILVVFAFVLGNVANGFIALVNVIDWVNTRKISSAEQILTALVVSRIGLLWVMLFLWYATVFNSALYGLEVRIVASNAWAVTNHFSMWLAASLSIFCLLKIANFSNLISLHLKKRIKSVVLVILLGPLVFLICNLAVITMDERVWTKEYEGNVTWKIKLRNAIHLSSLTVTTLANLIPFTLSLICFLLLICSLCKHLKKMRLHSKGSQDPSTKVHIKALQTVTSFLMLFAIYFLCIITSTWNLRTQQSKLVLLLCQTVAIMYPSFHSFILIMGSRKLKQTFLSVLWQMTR
As to conditions: 10µM, Favipiravir 100μM.

For experiment [6], the target named is T6, 348 GPCRs (Homo sapiens, UniProt P41231).
T6 construct: expressed in transfected cells; host or cells: HEK293A

Setting [7] is: read-out: % GPCR activation compared to TPA, MRGPRD (MAS-related GPR, member D).
Where [8] appears, read: read-out: % GPCR activation compared to TPA, GPCR GPR12 (G protein-coupled receptor 12).
Where [9] appears, read: read-out: % GPCR activation compared to TPA, DP (prostaglandin D2 receptor).
Where [10] appears, read: read-out: % GPCR activation compared to TPA, TAS2R19 (taste receptor, type 2, member 19).
Where [11] appears, read: read-out: % GPCR activation compared to TPA, GPCR P2Y2 (purinergic receptor P2Y, G-protein coupled, 2).
Setting [12] is: MRGPRD (MAS-related GPR, member D), read-out: % GPCR activation compared to TPA.
The mark [13] stands for this setting: DP (prostaglandin D2 receptor), read-out: % GPCR activation compared to TPA.
[14] abbreviates: TAS2R19 (taste receptor, type 2, member 19), read-out: % GPCR activation compared to TPA.
The mark [15] stands for this setting: GPCR GPR12 (G protein-coupled receptor 12), read-out: % GPCR activation compared to TPA.
[16] abbreviates: GPCR P2Y2 (purinergic receptor P2Y, G-protein coupled, 2), read-out: % GPCR activation compared to TPA.

T1 sequence (Q8TDS7 whole entry): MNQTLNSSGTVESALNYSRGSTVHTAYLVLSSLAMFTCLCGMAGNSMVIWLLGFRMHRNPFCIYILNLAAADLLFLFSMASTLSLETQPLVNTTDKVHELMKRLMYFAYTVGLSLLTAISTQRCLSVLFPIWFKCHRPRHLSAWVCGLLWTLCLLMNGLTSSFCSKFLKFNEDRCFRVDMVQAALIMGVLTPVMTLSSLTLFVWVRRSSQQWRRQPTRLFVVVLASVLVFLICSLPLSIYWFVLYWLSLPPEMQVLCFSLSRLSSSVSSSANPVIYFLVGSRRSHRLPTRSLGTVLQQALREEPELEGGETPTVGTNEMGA
T6 sequence (P41231 whole entry): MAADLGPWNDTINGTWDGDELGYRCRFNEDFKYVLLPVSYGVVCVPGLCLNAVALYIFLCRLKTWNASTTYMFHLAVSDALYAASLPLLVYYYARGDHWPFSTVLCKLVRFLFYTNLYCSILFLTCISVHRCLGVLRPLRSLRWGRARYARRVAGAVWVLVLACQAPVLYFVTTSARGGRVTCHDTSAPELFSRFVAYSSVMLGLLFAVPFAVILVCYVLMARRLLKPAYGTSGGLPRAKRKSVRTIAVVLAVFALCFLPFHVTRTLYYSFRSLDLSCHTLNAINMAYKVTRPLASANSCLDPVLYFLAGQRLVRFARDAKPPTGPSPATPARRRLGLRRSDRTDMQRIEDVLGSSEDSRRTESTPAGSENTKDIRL

On to `CC(C)OC(=O)[C@H](C)N[P@](=O)(OC[C@H]1O[C@@H](n2ccc(=O)[nH]c2=O)[C@](C)(F)[C@@H]1O)Oc1ccccc1` [sofosbuvir], for which the values for the activation at 100 µM on 348 GPCRs [1] (setting [7]), at 348 GPCRs [4] (setting [9]) and on 348 GPCRs [5] (setting [10]) were 4.12%, -0.617% and -0.561%, respectively. At 348 GPCRs [2], the “% GPCR activation compared to TPA” value was determined as 0.4557%. The activation at 10 µM at 348 GPCRs [3] (setting [8]) was -0.471%; on 348 GPCRs [6] (setting [11]) it was -41.7%.

On to `NC(=O)c1nc(F)cnc1O` [favipiravir, 6-fluoro-3-hydroxy-2-pyrazinecarboxamide], for which the activation at 100 µM was -0.473% at 348 GPCRs [1] (setting [12]); 3.7% at 348 GPCRs [3] (GPCR GPR12 (G protein-coupled receptor 12), 100μM, read-out: % GPCR activation compared to TPA); -1.59% at 348 GPCRs [4] (setting [13]); -1.32% at 348 GPCRs [5] (setting [14]); -23% at 348 GPCRs [6] (GPCR P2Y2 (purinergic receptor P2Y, G-protein coupled, 2), 100μM, read-out: % GPCR activation compared to TPA). The “% GPCR activation compared to TPA” value at 348 GPCRs [2] is given as 0.2738%.

`CCC(CC)COC(=O)[C@H](C)N[P@](=O)(OC[C@H]1O[C@@](C#N)(c2ccc3c(N)ncnn23)[C@H](O)[C@@H]1O)Oc1ccccc1` [remdesivir]: the activation at 100 µM at 348 GPCRs [1] (setting [7]) was 0.905%; on 348 GPCRs [4] (setting [9]) it was 6.06%; on 348 GPCRs [5] (setting [10]), 0.523%. Moreover, on 348 GPCRs [2], the “% GPCR activation compared to TPA” value is recorded as -0.5639%. Also, the activation at 10 µM at 348 GPCRs [3] (setting [8]) was 5.35%; at 348 GPCRs [6] (setting [11]) it was -6.22%.

With `N#C[C@@]1(c2ccc3c(N)ncnn23)O[C@H](CO)[C@@H](O)[C@H]1O` [GS441524], the activation at 100 µM is -4.53% on 348 GPCRs [1] (setting [12]), -1.84% at 348 GPCRs [4] (setting [13]) and -0.28% on 348 GPCRs [5] (setting [14]). Further, the “% GPCR activation compared to TPA” value at 348 GPCRs [2] was -1.093%. The figures for the activation at 10 µM on 348 GPCRs [3] (setting [15]) and on 348 GPCRs [6] (setting [16]) were 4.27% and -17.2%, respectively.

Take `CC(C)C(=O)OC[C@H]1O[C@@H](n2ccc(NO)nc2=O)[C@H](O)[C@@H]1O` [molnupiravir]: the figures for the activation at 100 µM on 348 GPCRs [1] (setting [12]), on 348 GPCRs [4] (setting [13]) and on 348 GPCRs [5] (setting [14]) were -3.12%, -0.606% and -0.811%, respectively. Moreover, at 348 GPCRs [2], the “% GPCR activation compared to TPA” value is -0.9572%. Moreover, the activation at 10 µM is 0.357% on 348 GPCRs [3] (setting [15]) and -58.1% at 348 GPCRs [6] (setting [16]).

Source of the values: article PMC10175918 (Communications Biology, 2023).
